In US20080064668A1, “1,3-Diacylated, 26,27-Alkyl/Haloakyl Vitamin D3 Compounds and Methods of Use Thereof” (BioXell S.p.A., priority 2003, published 2008):

Experiments:
[1] = Determination of Maximum Tolerated Dose (MTD)
Method: The maximum tolerated dose of the vitamin D3 compounds of the invention were determined in eight week-old female C57BL/6 mice (3 mice/group) dosed orally (0.1 ml/mouse) with various concentrations of Vitamin D3 analogs daily for four days. Analogs were formulated in miglyol for a final concentration of 0.01, 0.03, 0.1 0.3, 1, 3, 10, 30, 100 and 300 μg/kg when given at 0.1 ml/mouse p.o. daily. Blood for serum calcium assay was drawn by tail bleed on day five, the final day of the study.

IFN-γ production = IFN-γ production in the mixed leukocyte response (MLR); type: cell-based; details: 120 h; allogeneic PBMC from 2 donors, 5 days, ELISA; read-out: INF-γ IC50
Method: Immature dendritic cells (DC) were prepared as described in Romani, N. et al. (Romani, N. et al. (1996) J. Immunol. Meth. 196:137). IFN-γ production by allogeneic T cell activation in the mixed leukocyte response (MLR) was determined as described in Penna, G., et al., J Immunol., 164: 2405-2411 (2000).
Briefly, peripheral blood mononuclear cells (PBMC) were separated from buffy coats by Ficoll gradient and the same number (3×10^5) of allogeneic PBMC from 2 different donors were co-cultured in 96-well flat-bottom plates. The vitamin D3 compounds were added to each of the cultures.

RT112 = assay: Proliferation assay using bladder cancer cell lines, RT112; type: cell-based, human; details: Homo sapiens, RT-112, 72 h, 72 h culture, CyQuant proliferation assay
Method: (§1) Bladder cancer cell lines (T24, RT112, HT1376 and RT4 are human bladder cancer cell lines; NHEK are normal human keratinocytes) were obtained from the European Collection of Cell Cultures (Salisbury, UK). Cells were plated at 3×10^3 per well, in flat bottomed 96-well plates in 100 μl of DMEM medium containing: 5% Fetal Clone I, 50 μg/l gentamicin, 1 mM sodium pyruvate and 1% non-essential amino acids. After culturing for 24 h at 37° C. in 5% CO2, to allow cells to adhere to the plates, VDR ligands (compounds (2), (4), (5) and other vitamin D3 analogs as shown in Table 4) were added at concentrations ranging from 100 μM to 0.3 μM in 100 μl of above-mentioned complete medium. After a further 72 h of culture, cell proliferation was measured using a fluorescence-based proliferation assay kit. (CyQuant Cell Proliferation Assay Kit, Molecular Probes, Eugene, Oreg., USA). The IC50 was calculated from the regression curve of the titration data.

HT 1376 = assay: Proliferation assay using bladder cancer cell lines, HT1376; type: cell-based, human; details: Homo sapiens, HT-1376; 72 h culture, CyQuant proliferation assay
Method: as §1

NOD mouse body weight = type: in vivo, mice
Method: 1,3-Di-O-acetyl-1,25-dihydroxy-16,23Z-diene-26,27-hexafluoro-19-nor-cholecalciferol (2) was dissolved in ethanol (1 mg/ml) and then diluted in miglyol 812. […]

## CC(=O)OC1C/C(=C/C=C2\CCC[C@]3(C)C(C(C)C/C=C\C(O)(C(F)(F)F)C(F)(F)F)=CCC23)C[C@@H](OC(C)=O)C1 (some centres unmarked) [Compound (2), 1,3-Di-O-acetyl-1,25-dihydroxy-16,23Z-diene-26,27-hexafluoro-19-nor-cholecalciferol]
[1]; female, C57BL/6, mouse, in vivo, po
  MTD at 4 days: 0.1 µg/kg
[1]; mice, MTD of (2) versus parent (1)
  MTD relative to compound (1): more than 300 times
[1]; versus (1) or (3)
  MTD compared with the corresponding dihydroxy (parent) compound: significantly higher
IFN-γ production
  IC50: 0.722 nM
RT112
  IC50: 1000 nM
HT 1376
  IC50: 100000 nM
NOD mouse body weight; 0.1 mg/Kg or 0.2 mg/Kg dose
  effect on body weight: did not affect body weight
NOD mouse body weight; 0.1 mg/kg p.o., week 8
  NOD mouse body weight: 22.07 g
NOD mouse body weight; 0.1 mg/kg p.o., week 9
  NOD mouse body weight: 22.98 g
NOD mouse body weight; 0.1 mg/kg p.o., week 10
  NOD mouse body weight: 22.77 g
NOD mouse body weight; 0.1 mg/kg p.o., week 11
  NOD mouse body weight: 23.4 g
NOD mouse body weight; 0.1 mg/kg p.o., week 12
  NOD mouse body weight: 24.01 g
NOD mouse body weight; 0.1 mg/kg p.o., week 13
  NOD mouse body weight: 23.69 g
NOD mouse body weight; 0.1 mg/kg p.o., week 14
  NOD mouse body weight: 24.1 g
NOD mouse body weight; 0.1 mg/kg p.o., week 15
  NOD mouse body weight: 24.6 g
NOD mouse body weight; 0.1 mg/kg p.o., week 16
  NOD mouse body weight: 25 g
NOD mouse body weight; 0.1 mg/kg p.o., week 17
  NOD mouse body weight: 24.6 g
NOD mouse body weight; 0.1 mg/kg p.o., week 18
  NOD mouse body weight: 25.1 g
NOD mouse body weight; 0.1 mg/kg p.o., week 19
  NOD mouse body weight: 25.6 g
NOD mouse body weight; 0.1 mg/kg p.o., week 20
  NOD mouse body weight: 25.2 g
NOD mouse body weight; 0.1 mg/kg p.o., week 21
  NOD mouse body weight: 25.6 g
NOD mouse body weight; 0.1 mg/kg p.o., week 22
  NOD mouse body weight: 25.8 g
NOD mouse body weight; 0.1 mg/kg p.o., week 23
  NOD mouse body weight: 25.5 g
NOD mouse body weight; 0.1 mg/kg p.o., week 24
  NOD mouse body weight: 26.8 g
NOD mouse body weight; 0.1 mg/kg p.o., week 25
  NOD mouse body weight: 26.4 g
NOD mouse body weight; 0.1 mg/kg p.o., week 26
  NOD mouse body weight: 26.7 g
NOD mouse body weight; 0.1 mg/kg p.o., week 27
  NOD mouse body weight: 26.5 g
NOD mouse body weight; 0.2 mg/kg p.o., week 8
  NOD mouse body weight: 21.25 g
NOD mouse body weight; 0.2 mg/kg p.o., week 9
  NOD mouse body weight: 21.75 g
NOD mouse body weight; 0.2 mg/kg p.o., week 10
  NOD mouse body weight: 22.06 g
NOD mouse body weight; 0.2 mg/kg p.o., week 11
  NOD mouse body weight: 22.99 g
NOD mouse body weight; 0.2 mg/kg p.o., week 12
  NOD mouse body weight: 24.21 g
NOD mouse body weight; 0.2 mg/kg p.o., week 13
  NOD mouse body weight: 24.4 g
NOD mouse body weight; 0.2 mg/kg p.o., week 14
  NOD mouse body weight: 24.34 g
NOD mouse body weight; 0.2 mg/kg p.o., week 15
  NOD mouse body weight: 24.53 g
NOD mouse body weight; 0.2 mg/kg p.o., week 16
  NOD mouse body weight: 25.01 g
NOD mouse body weight; 0.2 mg/kg p.o., week 17
  NOD mouse body weight: 24.33 g
NOD mouse body weight; 0.2 mg/kg p.o., week 18
  NOD mouse body weight: 24.89 g
NOD mouse body weight; 0.2 mg/kg p.o., week 19
  NOD mouse body weight: 25.29 g
NOD mouse body weight; 0.2 mg/kg p.o., week 20
  NOD mouse body weight: 24.9 g
NOD mouse body weight; 0.2 mg/kg p.o., week 21
  NOD mouse body weight: 25.41 g
NOD mouse body weight; 0.2 mg/kg p.o., week 22
  NOD mouse body weight: 26.36 g
NOD mouse body weight; 0.2 mg/kg p.o., week 23
  NOD mouse body weight: 25.8 g
NOD mouse body weight; 0.2 mg/kg p.o., week 24
  NOD mouse body weight: 25.63 g
NOD mouse body weight; 0.2 mg/kg p.o., week 25
  NOD mouse body weight: 26.12 g
NOD mouse body weight; 0.2 mg/kg p.o., week 26
  NOD mouse body weight: 27.15 g
NOD mouse body weight; 0.2 mg/kg p.o., week 27
  NOD mouse body weight: 26.56 g
